The text below walks through data of article PMC2632993, “Conformational changes in α7 acetylcholine receptors underlying allosteric modulation by divalent cations” (BMC Pharmacology, 2009).

Holding throughout (assay type): cell-based, chick
Assay [1] deals with T1, α7 AChR M^40C mutant (C^115A/L^247T background) (Gallus gallus, UniProt P22770, C138A/L270T/M63C).
T1 construct: expressed in transfected cells; host or cells: Xenopus laevis oocytes injected with cRNA
The source says: A cDNA clone of the chick α7 receptor containing two mutations (C^115A, L^247T) was used as the parental phenotype for mutations described in this study. We mutated the lone unpaired cysteine in the extracellular domain (C^115) to alanine to allow for a more straightforward interpretation of thiol modification experiments. […] We included the mutation of leucine 247 in the M2 transmembrane domain (L^247T; L9'T) because of its large current amplitudes and non-desensitizing kinetics compared to wild-type α7 receptors. […] All mutations were introduced by site-directed mutagenesis using the QuikChange method (Agilent Technologies, La Jolla, CA) as described previously, and were confirmed by DNA sequencing. […]
Oocytes were superfused in normal extracellular solution containing a reduced Ca^2+ concentration (ESLC; 96 mM NaCl, 2 mM KCl, 1 mM MgCl2, 0.1 mM CaCl2, and 10 mM HEPES, pH 7.5). […] Currents were recorded at a constant holding potential of -60 mV. […]
MTSEA was prepared daily in distilled water and stored on ice. […] Kinetic data were analyzed as described previously; rate data were fit to a single exponential to extract a pseudo-first order rate constant; this was divided by the MTSEA concentration used to determine the second order rate constant for thiol modification.

Assay [2] deals with α7 AChR N^170C mutant (C^115A/L^247T background) (Gallus gallus, UniProt P22770, C138A/L270T/N193C). Briefly: ACh dose-response, two-electrode voltage clamp in Xenopus oocytes. Conditions: co-expression with human RIC-3. An excerpt: (§1) A cDNA clone of the chick α7 receptor containing two mutations (C^115A, L^247T) was used as the parental phenotype for mutations described in this study. We mutated the lone unpaired cysteine in the extracellular domain (C^115) to alanine to allow for a more straightforward interpretation of thiol modification experiments. […] We included the mutation of leucine 247 in the M2 transmembrane domain (L^247T; L9'T) because of its large current amplitudes and non-desensitizing kinetics compared to wild-type α7 receptors. […] All mutations were introduced by site-directed mutagenesis using the QuikChange method (Agilent Technologies, La Jolla, CA) as described previously, and were confirmed by DNA sequencing.
(§2) cRNA was prepared using the T7 RNA polymerase and mMessage mMachine kit as described by the manufacturer (Applied Biosystems, Austin, TX). Oocytes were surgically removed and prepared from female Xenopus laevis in accordance with UNC Institutional Animal Care and Use Committee guidelines. Oocytes were injected with 20 ng of cRNA and incubated at 18°C in ND96 (96 mM NaCl, 2 mM KCl, 1 mM MgCl2, 1.8 mM CaCl2, 5 mM Na pyruvate, 50 μg/ml gentamicin, 5 mM HEPES, pH 7.5) for 2–5 days before use. For some mutants we co-injected cRNA encoding the human RIC-3 [38], a protein shown to enhance expression of α7 AChRs in both mammalian cells and oocytes.
(§3) Oocytes were superfused in normal extracellular solution containing a reduced Ca^2+ concentration (ESLC; 96 mM NaCl, 2 mM KCl, 1 mM MgCl2, 0.1 mM CaCl2, and 10 mM HEPES, pH 7.5). […] Two-electrode voltage clamp was performed with a GeneClamp 500B controlled by pCLAMP8 software (Molecular Devices, Sunnyvale, CA). Electrodes were filled with 3 M KCl contacting Ag-AgCl wires and had resistances of 0.5 to 2.0 MΩ. Currents were recorded at a constant holding potential of -60 mV. Currents were low pass filtered at 50 Hz and sampled at 100 Hz. Agonist dose-response curves were obtained as described previously, and data were fit to the Hill equation using Origin software (Microcal Software, Northampton, MA).
(§4) MTSEA was prepared daily in distilled water and stored on ice. Stock solution was diluted to the appropriate working concentration in ESLC immediately before each application. […] To measure the effect of Ba^2+ on modification rates we pre-applied 10 mM Ba^2+ for 30 seconds prior to co-application of 10 mM Ba^2+ plus MTSEA. […] Kinetic data were analyzed as described previously; rate data were fit to a single exponential to extract a pseudo-first order rate constant; this was divided by the MTSEA concentration used to determine the second order rate constant for thiol modification.

Assay [3] concerns the target α7 C^115A/L^247T receptor (Gallus gallus, UniProt P22770, C138A/L270T). The description is as above.
From the text: as §1, §2, §3, §4

Assay [4] deals with α7 AChR E^172C mutant (C^115A/L^247T background) (Gallus gallus, UniProt P22770, C138A/E195C/L270T). The description is as above. Conditions: co-expression with human RIC-3.
From the text: as §1, §2, §3, §4

Assay [5] has as its target α7 AChR N^52C mutant (C^115A/L^247T background) (Gallus gallus, UniProt P22770, C138A/L270T/N75C). Described as above.
From the text: as §1, §2, §3, §4

The target of assay [6] is α7 AChR E^44C mutant (C^115A/L^247T background) (Gallus gallus, UniProt P22770, C138A/E67C/L270T). The assay is described as above.
From the text: as §1, §2, §3, §4

Assay [7] has as its target α7 AChR M^37C mutant (C^115A/L^247T background) (Gallus gallus, UniProt P22770, C138A/L270T/M60C). Described as above.
From the text: as §1, §2, §3, §4

The target in assay [8] is α7 AChR M^40C/E^172Q mutant (C^115A/L^247T background) (Gallus gallus, UniProt P22770, C138A/E195Q/L270T/M63C). Described as above. The conditions noted are these: co-expression with human RIC-3.
From the text: as §1, §2, §3, §4

In the case of `CC(=O)OCC[N+](C)(C)C` [ACh, acetylcholine chloride], the “ACh Imax” value in assay [1] was 3.0 μA; in assay [2], 1.7 μA; in assay [3] it was 6.9 μA; in assay [4], 1.3 μA; in assay [5], 0.34 μA; in assay [6], 5.4 μA. Further, the “ACh Imax” value in assay [7] is 0.92 μA; in assay [8], 0.7 μA. In addition, the “Hill coefficient of ACh dose-response” value is 1.9 ± 0.4 in assay [3] (+ 10 mM BaCl2), 2.5 ± 0.2 in assay [3] (-Ba^2+), 2.9 ± 0.7 in assay [6] (+ 10 mM BaCl2) and 1.7 ± 0.2 in assay [6] (-Ba^2+).
